The target in this test is T1, N-terminal HiBiT tagged BCL6 (Homo sapiens, UniProt P41182).
T1 construct: expressed in transfected cells; host or cells: HT1080 (ATCC CCL-121), stably transduced with lentivirus pLV-UBC-N-HiBiT-BCL6-PGK-puro
Kind of test: HiBiT based degradation assay. The settings on record: HT1080 cells expressing N-terminal HiBiT tagged BCL6, 5 hours of incubation; for Ymin (5 hr): BCL6 degradation normalized with DMSO control; for DC50: four-parameter logistic model, read-out: EC50 (5 hr). The format is cell-based. Put shortly:
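Degradation measured by luminescence from the Nano-Glo HiBiT lytic reagent (15 min, room temperature), normalized to DMSO controls and fitted to a four-parameter curve.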

A value given as a limit tells only on which side of the number the result lay.

Turning to `CNC(=O)COc1cc2cc(Nc3nc(N4CCN(C[C@H]5CCN(c6ccc7c(C8CCC(=O)NC8=O)nn(C)c7c6)C5)[C@@H](C)C4)ncc3Cl)cnc2n(C(C)C)c1=O` (stereo partly drawn) [Compound 216a, 2-[[6-[[5-chloro-2-[(3S)-4-[[(3R)-1-[3-(2,6-dioxo-3-piperidyl)-1-methyl-indazol-6-yl]pyrrolidin-3-yl]methyl]-3-methyl-piperazin-1-yl]pyrimidin-4-yl]amino]-1-isopropyl-2-oxo-1,8-naphthyridin-3-yl]oxy]-N-methyl-acetamide], the “Ymin (5 hr)” value is listed as “++ (50% ≤ Ymin < 70%)” and the DC50 fell in the range of 10 to 100 nM.
The corresponding values for `CNC(=O)COc1cc2cc(Nc3nc(N4CCN(C[C@@H]5CCN(c6ccc7c(C8CCC(=O)NC8=O)nn(C)c7c6)C5)[C@@H](C)C4)ncc3Cl)cnc2n(C(C)C)c1=O` (stereo partly drawn) [Compound 216b, 2-((6-((5-Chloro-2-((3S)-4-(((3S)-1-(3-(2,6-dioxopiperidin-3-yl)-1-methyl-1H-indazol-6-yl)pyrrolidin-3-yl)methyl)-3-methylpiperazin-1-yl)pyrimidin-4-yl)amino)-1-isopropyl-2-oxo-1,2-dihydro-1,8-naphthyridin-3-yl)oxy)-N-methylacetamide] are “+++ (30% ≤ Ymin < 50%)” and 10 to 100 nM.
As for `CNC(=O)COc1cc2cc(Nc3nc(N4CCN(C[C@H]5CCN(c6ccc7c(C8CCC(=O)NC8=O)nn(C)c7c6)C5)[C@H](C)C4)ncc3Cl)cnc2n(C(C)C)c1=O` (stereo partly drawn) [Compound 216c, 2-[[6-[[5-chloro-2-[(3R)-4-[[(3R)-1-[3-(2,6-dioxo-3-piperidyl)-1-methyl-indazol-6-yl]pyrrolidin-3-yl]methyl]-3-methyl-piperazin-1-yl]pyrimidin-4-yl]amino]-1-isopropyl-2-oxo-1,8-naphthyridin-3-yl]oxy]-N-methyl-acetamide], the “Ymin (5 hr)” value is listed as “++ (50% ≤ Ymin < 70%)” and the DC50 is less than 10 nM.
On the same counts, the results for `CNC(=O)COc1cc2cc(Nc3nc(N4CCN(C[C@@H]5CCN(c6ccc7c(C8CCC(=O)NC8=O)nn(C)c7c6)C5)[C@H](C)C4)ncc3Cl)cnc2n(C(C)C)c1=O` (stereo partly drawn) [Compound 216d, 2-[[6-[[5-chloro-2-[(3R)-4-[[(3S)-1-[3-(2,6-dioxo-3-piperidyl)-1-methyl-indazol-6-yl]pyrrolidin-3-yl]methyl]-3-methyl-piperazin-1-yl]pyrimidin-4-yl]amino]-1-isopropyl-2-oxo-1,8-naphthyridin-3-yl]oxy]-N-methyl-acetamide] are “+++ (30% ≤ Ymin < 50%)” and less than 10 nM.
The corresponding values for `CNC(=O)COc1cc2cc(Nc3cc(N4CCC(CN5CCN(c6cccc7c(C8CCC(=O)NC8=O)nn(C)c67)[C@H](C)C5)CC4)ncc3Cl)cnc2n(C(C)C)c1=O` (stereo partly drawn) [Compound 217a, 2-[[6-[[5-chloro-2-[4-[[(3R)-4-[3-(2,6-dioxo-3-piperidyl)-1-methyl-indazol-7-yl]-3-methyl-piperazin-1-yl]methyl]-1-piperidyl]-4-pyridyl]amino]-1-isopropyl-2-oxo-1,8-naphthyridin-3-yl]oxy]-N-methyl-acetamide] are “++++ (Ymin < 30%)” and 10 to 100 nM.
On the same counts, the results for `CNC(=O)COc1cc2cc(Nc3cc(N4CCC(CN5CCN(c6cccc7c(C8CCC(=O)NC8=O)nn(C)c67)[C@@H](C)C5)CC4)ncc3Cl)cnc2n(C(C)C)c1=O` (stereo partly drawn) [Compound 217b, 2-[[6-[[5-chloro-2-[4-[[(3S)-4-[3-(2,6-dioxo-3-piperidyl)-1-methyl-indazol-7-yl]-3-methyl-piperazin-1-yl]methyl]-1-piperidyl]-4-pyridyl]amino]-1-isopropyl-2-oxo-1,8-naphthyridin-3-yl]oxy]-N-methyl-acetamide] are “+ (Ymin ≥ 70%)” and not below 1000 nM.

The record behind these values is US20260241012A1, “1,8-NAPHTHYRIDIN-2-ONE HETEROBIFUNCTIONAL BCL6 DEGRADERS” (Treeline Biosciences, Inc., priority 2022, published 2026).
